Molecules are shown by their SMILES. Starred links: 1 amine or outer side, 2 acyl side, 3 side chain; linkers in the order of their positions; H or OH if unused. Non-standard residues stand in square brackets, D forms with d. Residues, ends and D or L forms follow the SMILES beside them. Groups on a side chain read outwards from the residue. *: point of attachment. X1 = O=C(O)CCCCCCCCCCCCCCCCCCC(=O)N1CCN(CC(=O)*)CC1; C20 diacid = O=C(O)CCCCCCCCCCCCCCCCCCC(=O)*; γGlu = O=C(O)[C@H](CCC(=O)[*:2])N[*:1]; AEEA = NCCOCCOCC(=O)O; Aib = CC(C)(N)C(=O)O

The text below walks through data of US12703729B2, “GIP agonist compounds and methods” (Zealand Pharma A/S, priority 2014, dated 2026).

The target of test [1] is human GLP-1 receptor (GLP-1R) (Homo sapiens, UniProt P43220). Description: Activity assay at human GLP-1 receptor, cAMP induction (AlphaScreen), Example 3. Background: Bead proximity is the source of the signal in Alpha formats.
Chain of human GLP-1 receptor (GLP-1R) (P43220 24-463): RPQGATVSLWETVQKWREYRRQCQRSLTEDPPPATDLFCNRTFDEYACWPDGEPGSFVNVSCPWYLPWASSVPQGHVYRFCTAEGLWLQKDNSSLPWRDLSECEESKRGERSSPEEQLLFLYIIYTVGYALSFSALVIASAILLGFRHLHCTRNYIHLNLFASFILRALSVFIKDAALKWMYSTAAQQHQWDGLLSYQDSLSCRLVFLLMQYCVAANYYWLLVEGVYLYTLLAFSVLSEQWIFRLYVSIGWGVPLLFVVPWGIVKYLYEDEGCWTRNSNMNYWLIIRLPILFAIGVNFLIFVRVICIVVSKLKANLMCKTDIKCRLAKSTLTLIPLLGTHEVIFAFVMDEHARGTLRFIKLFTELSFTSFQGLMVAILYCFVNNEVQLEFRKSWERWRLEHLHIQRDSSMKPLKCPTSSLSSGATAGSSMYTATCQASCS
Test [2] concerns the target T1, human GIP receptor (GIP R) (Homo sapiens, UniProt P48546).
T1 sequence (P48546 22-466): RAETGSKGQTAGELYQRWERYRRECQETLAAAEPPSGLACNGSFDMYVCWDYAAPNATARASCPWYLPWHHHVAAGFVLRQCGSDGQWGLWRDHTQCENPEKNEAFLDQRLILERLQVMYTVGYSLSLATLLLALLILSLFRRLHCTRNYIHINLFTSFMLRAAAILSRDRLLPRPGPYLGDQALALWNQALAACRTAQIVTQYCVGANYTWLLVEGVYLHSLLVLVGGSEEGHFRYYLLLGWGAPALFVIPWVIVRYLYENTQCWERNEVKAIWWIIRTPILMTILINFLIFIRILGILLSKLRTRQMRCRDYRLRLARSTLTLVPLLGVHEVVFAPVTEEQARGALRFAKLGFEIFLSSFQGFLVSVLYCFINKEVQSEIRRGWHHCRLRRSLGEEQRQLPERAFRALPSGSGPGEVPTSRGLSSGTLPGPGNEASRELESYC
Description: Activity assay at human GIP receptor, cAMP induction (AlphaScreen), Example 3.

Test [3] concerns the target T2, human GIP R (Homo sapiens, UniProt P48546).
T2 sequence (P48546 22-466): T1 sequence (P48546 22-466)
Nature of the test: cell-based.

On to `CC[C@H](C)[C@H](NC(=O)[C@H](CCCCN)NC(=O)[C@H](CCC(=O)O)NC(=O)[C@H](CC(C)C)NC(=O)[C@H](CCC(=O)O)NC(=O)[C@@H](NC(=O)[C@H](CO)NC(=O)[C@H](Cc1ccc(O)cc1)NC(=O)[C@H](CC(=O)O)NC(=O)[C@H](CO)NC(=O)[C@@H](NC(=O)[C@H](Cc1ccccc1)NC(=O)[C@@H](NC(=O)CNC(=O)[C@H](CCC(=O)O)NC(=O)C(C)(C)NC(=O)[C@@H](N)Cc1ccc(O)cc1)[C@@H](C)O)[C@@H](C)CC)[C@@H](C)CC)C(=O)N[C@@H](C)C(=O)N[C@@H](CCC(N)=O)C(=O)N[C@@H](CCCNC(=N)N)C(=O)N[C@@H](C)C(=O)N[C@@H](Cc1ccccc1)C(=O)N[C@H](C(=O)N[C@@H](CCC(=O)O)C(=O)N[C@@H](Cc1c[nH]c2ccccc12)C(=O)N[C@@H](CC(C)C)C(=O)N[C@@H](CC(C)C)C(=O)N[C@@H](C)C(=O)N[C@@H](CCC(N)=O)C(=O)N[C@@H](CCCCNC(=O)COCCOCCNC(=O)COCCOCCNC(=O)CC[C@H](NC(=O)CCCCCCCCCCCCCCCCCCC(=O)O)C(=O)O)C(N)=O)C(C)C` [Compound 14] (H-Y[Aib]EGTFISDYSIELEKIAQRAFVEWLLAQK([AEEA-AEEA-γGlu-C20 diacid])-NH2), for which the values for the EC50 in test [1], in test [2] and in test [3] were over 10000 pM, 14 pM and 24 pM, respectively.

In the case of `CC[C@H](C)[C@H](NC(=O)[C@H](Cc1ccccc1)NC(=O)[C@H](C)NC(=O)[C@H](CCCNC(=N)N)NC(=O)[C@H](CCC(N)=O)NC(=O)[C@H](C)NC(=O)[C@H](CCCCNC(=O)COCCOCCNC(=O)COCCOCCNC(=O)CN1CCN(C(=O)CCCCCCCCCCCCCCCCCCC(=O)O)CC1)NC(=O)[C@H](CCCCN)NC(=O)[C@H](CC(=O)O)NC(=O)[C@H](CC(C)C)NC(=O)[C@H](CCC(=O)O)NC(=O)[C@@H](NC(=O)[C@H](CO)NC(=O)[C@H](Cc1ccc(O)cc1)NC(=O)[C@H](CC(=O)O)NC(=O)[C@H](CO)NC(=O)[C@@H](NC(=O)[C@H](Cc1ccccc1)NC(=O)[C@@H](NC(=O)CNC(=O)[C@H](CCC(=O)O)NC(=O)C(C)(C)NC(=O)[C@@H](N)Cc1ccc(O)cc1)[C@@H](C)O)[C@@H](C)CC)[C@@H](C)CC)C(=O)N[C@@H](CCC(=O)O)C(=O)N[C@@H](Cc1c[nH]c2ccccc12)C(=O)N[C@@H](CC(C)C)C(=O)N[C@@H](CC(C)C)C(=O)N[C@@H](C)C(=O)N[C@@H](CCC(N)=O)C(=O)NCC(=O)N1CCC[C@H]1C(=O)N[C@@H](CO)C(=O)N[C@@H](CO)C(=O)NCC(=O)N[C@@H](C)C(=O)N1CCC[C@H]1C(=O)N1CCC[C@H]1C(=O)N1CCC[C@H]1C(=O)N[C@@H](CO)C(N)=O` [Compound 19] (H-Y[Aib]EGTFISDYSIELDKK([AEEA-AEEA-X1])AQRAFIEWLLAQGPSSGAPPPS-NH2), the EC50 in test [1] was over 3000 pM; in test [2], 5 pM; in test [3], 6 pM.

For `CC[C@H](C)[C@H](NC(=O)[C@H](CO)NC(=O)[C@H](Cc1ccc(O)cc1)NC(=O)[C@H](CC(=O)O)NC(=O)[C@H](CO)NC(=O)[C@@H](NC(=O)[C@H](Cc1ccccc1)NC(=O)[C@@H](NC(=O)CNC(=O)[C@H](CCC(=O)O)NC(=O)C(C)(C)NC(=O)[C@@H](N)Cc1ccc(O)cc1)[C@@H](C)O)[C@@H](C)CC)C(=O)N[C@@H](CCC(=O)O)C(=O)N[C@@H](CC(C)C)C(=O)N[C@@H](CC(=O)O)C(=O)N[C@@H](CCCCN)C(=O)N[C@@H](CCCCNC(=O)COCCOCCNC(=O)COCCOCCNC(=O)CN1CCN(C(=O)CCCCCCCCCCCCCCCCCCC(=O)O)CC1)C(=O)N[C@@H](C)C(=O)N[C@@H](CCC(N)=O)C(=O)N[C@@H](CCCNC(=N)N)C(=O)N[C@@H](C)C(=O)N[C@@H](Cc1ccccc1)C(=O)N[C@H](C(=O)N[C@@H](CCC(=O)O)C(=O)N[C@@H](Cc1c[nH]c2ccccc12)C(=O)N[C@@H](CC(C)C)C(=O)N[C@@H](CC(C)C)C(=O)N[C@@H](C)C(=O)N[C@@H](CCC(N)=O)C(=O)NCC(=O)N1CCC[C@H]1C(=O)N[C@@H](CO)C(=O)N[C@@H](CO)C(=O)NCC(=O)N[C@@H](C)C(=O)N1CCC[C@H]1C(=O)N1CCC[C@H]1C(=O)N1CCC[C@H]1C(=O)N[C@@H](CO)C(N)=O)C(C)C` [Compound 20] (H-Y[Aib]EGTFISDYSIELDKK([AEEA-AEEA-X1])AQRAFVEWLLAQGPSSGAPPPS-NH2), the EC50 in test [1] is over 3000 pM; in test [2], 6 pM; in test [3], 7 pM.

As for `CC[C@H](C)[C@H](NC(=O)[C@H](CO)NC(=O)[C@H](Cc1ccc(O)cc1)NC(=O)[C@H](CC(=O)O)NC(=O)[C@H](CO)NC(=O)[C@@H](NC(=O)[C@H](Cc1ccccc1)NC(=O)[C@@H](NC(=O)CNC(=O)[C@H](CCC(=O)O)NC(=O)C(C)(C)NC(=O)[C@@H](N)Cc1ccc(O)cc1)[C@@H](C)O)[C@@H](C)CC)C(=O)N[C@@H](CCC(=O)O)C(=O)N[C@@H](CC(C)C)C(=O)N[C@@H](CC(=O)O)C(=O)N[C@@H](CCCCN)C(=O)N[C@@H](CCCCNC(=O)COCCOCCNC(=O)COCCOCCNC(=O)CC[C@H](NC(=O)CCCCCCCCCCCCCCCCCCC(=O)O)C(=O)O)C(=O)N[C@@H](C)C(=O)N[C@@H](CCC(N)=O)C(=O)N[C@@H](CCCCN)C(=O)N[C@@H](CCC(=O)O)C(=O)N[C@@H](Cc1ccccc1)C(=O)N[C@H](C(=O)N[C@@H](CCC(=O)O)C(=O)N[C@@H](Cc1c[nH]c2ccccc12)C(=O)N[C@@H](CC(C)C)C(=O)N[C@@H](CC(C)C)C(=O)N[C@@H](C)C(=O)N[C@@H](C)C(=O)NCC(=O)N1CCC[C@H]1C(=O)N[C@@H](CO)C(=O)N[C@@H](CO)C(=O)NCC(=O)N[C@@H](C)C(=O)N1CCC[C@H]1C(=O)N1CCC[C@H]1C(=O)N1CCC[C@H]1C(=O)N[C@@H](CO)C(N)=O)C(C)C` [Compound 22] (H-Y[Aib]EGTFISDYSIELDKK([AEEA-AEEA-γGlu-C20 diacid])AQKEFVEWLLAAGPSSGAPPPS-NH2), the EC50 in test [1] is over 10000 pM; in test [2], 7 pM; in test [3], 5 pM.

`CC[C@H](C)[C@H](NC(=O)[C@H](CCCCN)NC(=O)[C@H](CC(=O)O)NC(=O)[C@H](CC(C)C)NC(=O)[C@H](CCC(=O)O)NC(=O)[C@@H](NC(=O)[C@H](CO)NC(=O)[C@H](Cc1ccc(O)cc1)NC(=O)[C@H](CC(=O)O)NC(=O)[C@H](CO)NC(=O)[C@@H](NC(=O)[C@H](Cc1ccccc1)NC(=O)[C@@H](NC(=O)CNC(=O)[C@H](CCC(=O)O)NC(=O)C(C)(C)NC(=O)[C@@H](N)Cc1ccc(O)cc1)[C@@H](C)O)[C@@H](C)CC)[C@@H](C)CC)C(=O)N[C@@H](C)C(=O)N[C@@H](CCC(N)=O)C(=O)N[C@@H](CCCNC(=N)N)C(=O)N[C@@H](C)C(=O)N[C@@H](Cc1ccccc1)C(=O)N[C@H](C(=O)N[C@@H](CCC(=O)O)C(=O)N[C@@H](Cc1c[nH]c2ccccc12)C(=O)N[C@@H](CC(C)C)C(=O)N[C@@H](CC(C)C)C(=O)N[C@@H](C)C(=O)NCC(=O)N1CCC[C@H]1C(=O)N[C@@H](CO)C(=O)N[C@@H](CO)C(=O)NCC(=O)N[C@@H](C)C(=O)N1CCC[C@H]1C(=O)N1CCC[C@H]1C(=O)N1CCC[C@H]1C(=O)N[C@@H](CO)C(=O)N[C@@H](CCCCNC(=O)COCCOCCNC(=O)COCCOCCNC(=O)CC[C@H](NC(=O)CCCCCCCCCCCCCCCCCCC(=O)O)C(=O)O)C(N)=O)[C@@H](C)CC` [Compound 23] (H-Y[Aib]EGTFISDYSIELDKIAQRAFIEWLLAGPSSGAPPPSK([AEEA-AEEA-γGlu-C20 diacid])-NH2): the EC50 was over 10000 pM in test [1], 5 pM in test [2] and 10 pM in test [3].

As a reminder, the EC50 is the concentration giving half of the maximal effect. High values mean weaker potency, low ones greater potency.
